Test: in vitro
Conditions: human, liver microsomes, pH 7.4

## CCC[C@H](C(N)=O)[C@@H](CCC(F)(F)F)C(=O)N[C@@H]1C(=O)Nc2ccccc2-c2ccccc21 [Example 2, (2R,3S)-N-((7S)-6-Oxo-6,7-dihydro-5H-dibenzo[b,d]azepin-7-yl)-3-propyl-2-(3,3,3-trifluoropropyl)succinamide]
  half-life at 0.5 μM: ≥ 40 min

## NC(=O)[C@@H](CC1CC1)[C@@H](CCC(F)(F)F)C(=O)N[C@@H]1C(=O)Nc2ccccc2-c2ccccc21 [Example 3, (2R,3S)-3-(Cyclopropylmethyl)-N-((7S)-6-oxo-6,7-dihydro-5H-dibenzo[b,d]azepin-7-yl)-2-(3,3,3-trifluoropropyl)succinamide]
  half-life at 0.5 μM: ≥ 40 min

## CCC[C@@H](C(=O)N[C@@H]1C(=O)Nc2ccccc2-c2ccccc21)[C@H](CCC(F)(F)F)C(N)=O [Example 4, (2R,3S)-N-((7S)-6-Oxo-6,7-dihydro-5H-dibenzo[b,d]azepin-7-yl)-2-propyl-3-(3,3,3-trifluoropropyl)succinamide]
  half-life at 0.5 μM: ≥ 40 min

## NC(=O)[C@@H](CC1CC1)[C@@H](CCC(F)(F)F)C(=O)N[C@@H]1C(=O)Nc2c(F)cccc2-c2ccccc21 [Example 5, (2R,3S)-3-(Cyclopropylmethyl)-N-((7S)-4-fluoro-6-oxo-6,7-dihydro-5H-dibenzo[b,d]azepin-7-yl)-2-(3,3,3-trifluoropropyl)succinamide]
  half-life at 0.5 μM: ≥ 40 min

## NC(=O)[C@@H](c1ccccc1)[C@@H](CCC(F)(F)F)C(=O)N[C@@H]1C(=O)Nc2ccccc2-c2ccccc21 [Example 6, (2R,3R)-N-((7S)-6-Oxo-6,7-dihydro-5H-dibenzo[b,d]azepin-7-yl)-3-phenyl-2-(3,3,3-trifluoropropyl)succinamide]
  half-life at 0.5 μM: ≥ 40 min

## NC(=O)[C@@H](CC1CC(F)(F)C1)[C@@H](CCC(F)(F)F)C(=O)N[C@@H]1C(=O)Nc2ccccc2-c2ccccc21 [Example 7, (2R,3S)-3-((3,3-difluorocyclobutyl)methyl)-N-((7S)-6-oxo-6,7-dihydro-5H-dibenzo[b,d]azepin-7-yl)-2-(3,3,3-trifluoropropyl)succinamide]
  half-life at 0.5 μM: ≥ 40 min

## NC(=O)[C@@H](CCC(F)(F)F)[C@@H](CCC(F)(F)F)C(=O)N[C@@H]1C(=O)Nc2c(Cl)cccc2-c2ccccc21 [Example 8, (2R,3S)-N-(4-Chloro-6-oxo-6,7-dihydro-5H-dibenzo[b,d]azepin-7-yl)-2,3-bis(3,3,3-trifluoropropyl)succinamide]
  half-life at 0.5 μM: ≥ 40 min

## CCC[C@H](C(N)=O)[C@@H](CCC(F)(F)F)C(=O)N[C@@H]1C(=O)Nc2c(F)cccc2-c2ccccc21 [Example 9, (2R,3S)-N-(4-Fluoro-6-oxo-6,7-dihydro-5H-dibenzo[b,d]azepin-7-yl)-3-propyl-2-(3,3,3-trifluoropropyl)succinamide]
  half-life at 0.5 μM: ≥ 40 min

## Cc1cccc2c1NC(=O)[C@@H](NC(=O)[C@H](CCC(F)(F)F)[C@H](CCC(F)(F)F)C(N)=O)c1cc(F)ccc1-2 [Example 10, (2R,3S)-N-((7S)-9-Fluoro-4-methyl-6-oxo-6,7-dihydro-5H-dibenzo[b,d]azepin-7-yl)-2,3-bis(3,3,3-trifluoropropyl)succinamide]
  half-life at 0.5 μM: ≥ 40 min

## Cc1cccc2c1NC(=O)[C@@H](NC(=O)[C@H](CCC(F)(F)F)[C@H](CC1CC1)C(N)=O)c1cc(F)ccc1-2 [Example 11, (2R,3S)-3-(Cyclopropylmethyl)-N-((7S)-9-fluoro-4-methyl-6-oxo-6,7-dihydro-5H-dibenzo[b,d]azepin-7-yl)-2-(3,3,3-trifluoropropyl)succinamide]
  half-life at 0.5 μM: ≥ 40 min
